Reference: patent US20190151403A1, “NOVEL CYCLOSPORIN DERIVATIVES AND USES THEREOF” (S&T Global Inc., priority 2016, published 2019)
Like-named read-outs stand apart in the source and are kept apart here. Each block holds one molecule with its values, some of them ahead of it. Starred links: 1 amine or outer side, 2 acyl side, 3 side chain; linkers in the order of their positions; H or OH if unused. Non-standard residues stand in square brackets, D forms with d. Residues, ends and D or L forms follow the SMILES beside them. ξ: configuration not given here. *: point of attachment. NMeThr(4R-Me,4-(CH2)6NHAc) = CN[C@H](C(=O)O)[C@H](O)[C@H](C)CCCCCCNC(C)=O; MeBmt = C/C=C/C[C@@H](C)[C@@H](O)[C@H](NC)C(=O)O; X1 = CCN(CC)CCS[C@H](C(=O)[*:2])N(C)[*:1]; NMeIle(3ξ) = CCC(C)[C@H](NC)C(=O)O; NMeL = CN[C@@H](CC(C)C)C(=O)O; NMeV = CN[C@H](C(=O)O)C(C)C; dNMeC = CN[C@H](CS)C(=O)O; dNMeS = CN[C@H](CO)C(=O)O; dNMeA = CN[C@H](C)C(=O)O; Abu = CC[C@H](N)C(=O)O; Butyl(4-OH) = OCCCC*

Experiments:
[1] = tested on: HCV replicon in cell line ET (luc-ubi-neo/ET), Huh7 human hepatoma cell line; test: HCV subgenomic replicon assay (luciferase end point); assay type: cell-based
Protocol: Anti-HCV activity of cyclosporine derivatives were evaluated in the HCV subgenomic replicon assay. The assay use the cell line ET (luc-ubi-neo/ET), which is a Huh7 human hepatoma cell line harboring an HCV replicon with a stable luciferase (Luc) reporter. HCV RNA replication was assessed by quantifying HCV replicon-derived luciferase activity. The antiviral activity of cyclosporine analogs were evaluated after drug treatment to derive EC50 and EC90 values by using the luciferase end point (Krieger, N., et al., 2001, J. Viral. 75, 4614-4624; Pietschmann, T., et al., 2002, J. Viral. 76, 4008-4021; each of which is incorporated herein by reference). Cytotoxicity was assessed in parallel.

[2] = target: Cyclophilin D (CyPD) (Homo sapiens, UniProt P30405); test: Cyclophilin D PPIase inhibition assay; assay type: biochemical
Sequence of Cyclophilin D (CyPD) (P30405 30-207, species assumed): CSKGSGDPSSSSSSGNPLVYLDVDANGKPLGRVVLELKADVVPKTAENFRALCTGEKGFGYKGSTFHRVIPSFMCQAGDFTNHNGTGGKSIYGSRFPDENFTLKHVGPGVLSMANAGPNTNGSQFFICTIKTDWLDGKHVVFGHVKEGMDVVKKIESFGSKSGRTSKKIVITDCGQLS

[3] = target: T1, Human recombinant CypA (Homo sapiens, UniProt P62937); test: Cyclophilin A PPIase inhibition, α-chymotrypsin-coupled assay; assay type: biochemical; conditions: 10 nM human recombinant CypA, 5° C, succinyl-AAPF-pNA substrate
T1 construct: purchased Atgen
T1 sequence (P62937 whole entry): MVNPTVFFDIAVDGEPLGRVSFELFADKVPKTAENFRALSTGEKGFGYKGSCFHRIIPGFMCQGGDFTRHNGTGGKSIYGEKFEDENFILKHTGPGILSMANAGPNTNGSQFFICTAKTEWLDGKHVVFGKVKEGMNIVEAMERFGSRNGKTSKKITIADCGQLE
Protocol: Inhibition of CyPA isomerase activity was assessed using the α-chymotrypsin-coupled assay adapted to a 96-well plate format. Human recombinant CypA (Atgen) was dissolved to 10 nM in isomerase buffer (50 mM Hepes, 100 mM NaCl, 1 mg/ml bovine serum albumin, 1 mg/ml a-chymotrypsin; pH 8). Succinyl-AAPF-pNA peptide substrate (Sigma) was dissolved to 3.2 mM in dried LiCl/trifluoroethanol. […] All solutions were equilibrated, and reactions conducted at 5° C. Reactions were initiated by mixing 95 μL reaction mix with 5 μL peptide preloaded in multiple wells of 96-well plates and measuring OD405 nm in each well at 6-sec intervals for 6 min using a BMG Polarstar Galaxy plate reader. Data were fitted with Graphpad Prism 6.0 to obtain first-order rate constants. Enzyme catalyzed rate constants were calculated by subtracting the rate constant from uncatalyzed reactions (no CypA), and the catalytic rate constants plotted as a function of inhibitor concentration to obtain IC50s (see […] et al., 2015, PLOS ONE).

[4] = tested on: HCV; conditions: reported by Hopkins et al. 2010; read-out: in vitro anti-HCV activity (EC50); cited from earlier work
[5] = target: cyclophilin A (Homo sapiens, UniProt P62937); conditions: published, Gallay et al. 2016; read-out: cyclophilin binding EC50 for cyclophilin A; cited from earlier work
Sequence of cyclophilin A (P62937 whole entry): as above

[6] = tested on: multi-genotype HCV GT1a to 4a; conditions: cited from earlier work
[7] = Hepatitis C virus, Huh-7, read-out: Antiviral activity
[8] = HCV subgenomic replicon, Huh7 ET cells, luciferase end point, read-out: Antiviral activity

Molecule: CC[C@@H]1NC(=O)[C@H]([C@H](O)[C@H](C)CCCCCCNC(C)=O)N(C)C(=O)[C@H](C(C)C)N(C)C(=O)[C@H](CC(C)C)N(C)C(=O)[C@H](CC(C)C)N(C)C(=O)[C@@H](C)NC(=O)[C@H](C)NC(=O)[C@H](CC(C)C)N(C)C(=O)[C@H](C(C)C)NC(=O)[C@H](CC(C)C)N(C)C(=O)CN(C)C1=O [[8-(2-Acetamidoethyl)-6,7-dihydro-MeBmt]-1-cyclosporin]
- IC50 [1, 7]: < 35 nM

Molecule: C/C=C/C[C@@H](C)[C@@H](O)[C@H]1C(=O)N[C@@H](CC)C(=O)N(C)CC(=O)N(C)[C@@H](C(C)C)C(=O)N[C@@H](C(C)C)C(=O)N(C)[C@@H](CC(C)C)C(=O)N[C@@H](C)C(=O)N[C@H](C)C(=O)N(C)[C@@H](CC(C)C)C(=O)N(C)[C@@H](CC(C)C)C(=O)N(C)[C@@H](C(C)C)C(=O)N1C [[N-MeVal]-4-cyclosporin (SDZ 220-384), N-MeVal-4-Cyclosporin]
- IC50 [1, 8]: 90 to 250 nM

Molecule: C/C=C/C[C@@H](C)[C@@H](O)[C@H]1C(=O)N[C@@H](CC)C(=O)N(C)[C@H](SCCN(C)C)C(=O)N(C)[C@@H](CC(C)(C)O)C(=O)N[C@@H](C(C)C)C(=O)N(C)[C@@H](CC(C)C)C(=O)N[C@@H](C)C(=O)N[C@H](C)C(=O)N(C)[C@@H](CC(C)C)C(=O)N(C)[C@@H](CC(C)C)C(=O)N(C)[C@@H](C(C)C)C(=O)N1C
- EC50 [2]: 4 to 10 nM
- IC50 [1, 7]: 35 to 90 nM

Molecule: CC[C@@H]1NC(=O)[C@H]([C@H](O)[C@H](C)CCCCCCNC(C)=O)N(C)C(=O)[C@H](C(C)C)N(C)C(=O)[C@H](CC(C)C)N(C)C(=O)[C@H](CC(C)C)N(C)C(=O)[C@@H](C)NC(=O)[C@H](C)NC(=O)[C@H](CC(C)C)N(C)C(=O)[C@H](C(C)C)NC(=O)[C@H](CC(C)C)N(C)C(=O)[C@@H](CSCCCCO)N(C)C1=O [[8-(2-Acetamidoethyl)-6,7-dihydro-MeBmt]-1-[(S)-(4-hydroxybutylthio)methyl-Sar]-3-cyclosporin] (cyclo(A[dA][NMeL][NMeL][NMeV][NMeThr(4R-Me,4-(CH2)6NHAc)][Abu][dNMeC](Butyl(4-OH))[NMeL]V[NMeL]))
- EC50 [2]: < 4 nM
- IC50 [3]: < 4 nM
- IC50 [1, 7]: < 35 nM

Molecule: C/C=C/C[C@@H](C)[C@@H](O)[C@H]1C(=O)N[C@@H](CC)C(=O)N(C)CC(=O)N(C)[C@@H]([C@@H](C)CC)C(=O)N[C@@H](C(C)C)C(=O)N(C)[C@@H](CC(C)C)C(=O)N[C@@H](C)C(=O)N[C@H](C)C(=O)N(C)[C@@H](CC(C)C)C(=O)N(C)[C@@H](CC(C)C)C(=O)N(C)[C@@H](C(C)C)C(=O)N1C [[N-MeIle]-4-cyclosporin (SDZ-NIM-811), N-MeIle-4-Cyclosporin]
- IC50 [1, 7]: 90 to 250 nM

Molecule: C/C=C/C[C@@H](C)[C@@H](O)[C@H]1C(=O)N[C@@H](CC)C(=O)N(C)[C@H](SCCN(CC)CC)C(=O)N(C)[C@@H](C(C)CC)C(=O)N[C@@H](C(C)C)C(=O)N(C)[C@@H](CC(C)C)C(=O)N[C@@H](C)C(=O)N[C@H](C)C(=O)N(C)[C@@H](CC(C)C)C(=O)N(C)[C@@H](CC(C)C)C(=O)N(C)[C@@H](C(C)C)C(=O)N1C (stereo partly drawn) [(R)-2-(N,N-Diethylamino)ethylthio-Sar]-3-[N-MeIle]-4-cyclosporin] (cyclo(A[dA][NMeL][NMeL][NMeV][MeBmt][Abu][X1][NMeIle(3ξ)]V[NMeL]))
- IC50 [1, 8]: < 35 nM

Molecule: C/C=C/C[C@@H](C)[C@@H](O)[C@H]1C(=O)N[C@@H](CC)C(=O)N(C)[C@H](SCCN(C)C)C(=O)N(C)[C@@H](CC(C)(C)O)C(=O)N[C@@H](C(C)C)C(=O)N(C)[C@@H](CC(C)C)C(=O)N[C@@H](C)C(=O)N[C@H](C)C(=O)N(C)[C@@H](CC(C)C)C(=O)N(C)[C@@H](CC(C)C)C(=O)N(C)[C@@H](C(C)C)C(=O)N1C [SCY-635]
- EC50 [4]: 100 nM

Molecule: [8-(2-Acetamidoethyl)-6,7-dihydro-MeBmt]-1-[(S)-(4-hydroxybutylthio)methyl-Sar]-3-[(γ-hydroxy)-N-MeLeu]-4-cyclosporin
- IC50 [1, 8]: < 35 nM

Molecule: CC[C@@H]1NC(=O)[C@H]([C@H](O)[C@H](C)CCCCCCNC(C)=O)N(C)C(=O)[C@H](C(C)C)N(C)C(=O)[C@H](CC(C)C)N(C)C(=O)[C@H](CC(C)C)N(C)C(=O)[C@@H](C)NC(=O)[C@H](C)NC(=O)[C@H](CC(C)C)N(C)C(=O)[C@H](C(C)C)NC(=O)[C@H](CC(C)C)N(C)C(=O)[C@@H](C)N(C)C1=O [[8-(2-Acetamidoethyl)-6,7-dihydro-MeBmt]-1-[(R)-Methyl]-3-cyclosporin] (cyclo(A[dA][NMeL][NMeL][NMeV][NMeThr(4R-Me,4-(CH2)6NHAc)][Abu][dNMeA][NMeL]V[NMeL]))
- IC50 [1, 7]: < 35 nM

Molecule: CC=CCC(C)C(O)C1C(=O)NC(CC)C(=O)N(C)C(CSCCCCO)C(=O)N(C)C(CC(C)(C)O)C(=O)NC(C(C)C)C(=O)N(C)C(CC(C)C)C(=O)NC(C)C(=O)NC(C)C(=O)N(C)C(CC(C)C)C(=O)N(C)C(CC(C)C)C(=O)N(C)C(C(C)C)C(=O)N1C (centres unmarked) [STG-175]
- EC50 [5]: 0.6 nM
- cross-resistance with direct anti-viral agents (DAAs) [6]: No cross-resistance is observed
- viral replication rebound after cessation of drug treatment ([6]; compared with Sofosbuvir): no viral replication rebound is observed
- EC50 ([6]; multi-genotype HCV GT1a to 4a, published, Gallay et al. 2016, read-out: anti-HCV activity EC50): 11.5 to 38.9 nM

Molecule: C/C=C/C[C@@H](C)[C@@H](O)[C@H]1C(=O)N[C@@H](CC)C(=O)N(C)[C@H](C)C(=O)N(CC)[C@@H](C(C)C)C(=O)N[C@@H](C(C)C)C(=O)N(C)[C@@H](CC(C)C)C(=O)N[C@@H](C)C(=O)N[C@H](C)C(=O)N(C)[C@@H](CC(C)C)C(=O)N(C)[C@@H](CC(C)C)C(=O)N(C)[C@@H](C(C)C)C(=O)N1C [Alisporivir]
- EC50 [2]: < 4 nM
- IC50 [3]: < 4 nM
- IC50 [1, 7]: < 35 nM

- EC50 [2]: < 4 nM
- IC50 [3]: < 4 nM
Molecule: C/C=C/C[C@@H](C)[C@@H](O)[C@H]1C(=O)N[C@@H](CC)C(=O)N(C)[C@H](CSCCCCO)C(=O)N(C)[C@@H](CC(C)(C)O)C(=O)N[C@@H](C(C)C)C(=O)N(C)[C@@H](CC(C)C)C(=O)N[C@@H](C)C(=O)N[C@H](C)C(=O)N(C)[C@@H](CC(C)C)C(=O)N(C)[C@@H](CC(C)C)C(=O)N(C)[C@@H](C(C)C)C(=O)N1C [[(S)-(4-Hydroxylbutylthio)methyl-Sar]-3-[(γ-hydroxy)-N-MeLeu]-4-cyclosporin]

Molecule: CC[C@@H]1NC(=O)[C@H]([C@H](O)[C@H](C)CCCCCCNC(C)=O)N(C)C(=O)[C@H](C(C)C)N(C)C(=O)[C@H](CC(C)C)N(C)C(=O)[C@H](CC(C)C)N(C)C(=O)[C@@H](C)NC(=O)[C@H](C)NC(=O)[C@H](CC(C)C)N(C)C(=O)[C@H](C(C)C)NC(=O)[C@H](CC(C)C)N(C)C(=O)[C@@H](CO)N(C)C1=O [[8-(2-Acetamidoethyl)-6,7-dihydro-MeBmt]-1-[(R)-hydroxymethyl-Sar]-3-cyclosporin] (cyclo(A[dA][NMeL][NMeL][NMeV][NMeThr(4R-Me,4-(CH2)6NHAc)][Abu][dNMeS][NMeL]V[NMeL]))
- IC50 [1, 7]: < 35 nM

Molecule: CC[C@@H]1NC(=O)[C@H]([C@H](O)[C@H](C)CCCCCCNC(C)=O)N(C)C(=O)[C@H](C(C)C)N(C)C(=O)[C@H](CC(C)C)N(C)C(=O)[C@H](CC(C)C)N(C)C(=O)[C@@H](C)NC(=O)[C@H](C)NC(=O)[C@H](CC(C)C)N(C)C(=O)[C@H](C(C)C)NC(=O)[C@H](CC(C)(C)O)N(C)C(=O)CN(C)C1=O [[8-(2-Acetamidoethyl)-6,7-dihydro-MeBmt]-1-[(γ-hydroxy)-N-MeLeu]-4-cyclosporin]
- IC50 [1, 7]: < 35 nM
